{"source": "patent US20230111310A1", "about": "“CARBOXYLIC ACID DERIVATIVE-SUBSTITUTED IMINO ARYL COMPOUND, PREPARATION METHOD THEREFOR, HERBICIDAL COMPOSITION AND USE THEREOF” (Qingdao Kingagroot Chemical Compound Co., Ltd., priority 2020, published 2023)", "assay_type_in_all_cases": "in vivo", "key": {"Lolium multiflorum Lamk.": {"test_system": "Lolium multiflorum Lamk.", "assay": "Composition activity test, soil sealing treatment", "details": "B 300 g a.i./ha", "procedure": "(§1) are as follows, and the others were purchased from reagent companies. The technical materials were all dissolved in acetone and diluted with an aqueous solution containing 0.1% emulsifier Tween-80. The dilution is performed as required.\n(§2) Weeds are cultivated in a controllable sunlight greenhouse at 20 to 30° C., in natural light, and relative humidity of 57% to 72%. […] The test soil was placed quantitatively to 3/4 of the pots and then watered from the bottom of the pots to completely wet the soil to saturation. The test weed seeds were germinated, and uniformly and quantitatively sowed on the surface, then covered with 0.5-2 cm soil according to the seed size, and ready-for use 72 hours after sowing.\n(§3) 3 pots with 30 weed seeds per pot were treated in one treatment with 4 replications per treatment.\n(§4) The well-sowed weeds were evenly placed on a platform with an area of 0.5 m^2, and a solution of agents was sprayed on the soil thereof by the 3WP-2000-type walking spray tower at a dosage of 450 kg/ha and at a spray pressure of 0.3 MPa. After all the solution was sprayed, the valve was closed. After 30 seconds, the door of the spray tower was opened, and the nutritional bowl was taken out. Then the valve was opened, and the spray tube was cleaned by spraying 50 ml of water.\n(§5) A method for investigating absolute number was employed, wherein whole seedlings of survival weeds were cut off with a blade along the soil surface, and the fresh weight of the weeds was weighed with an analytical balance. For dead weeds, the fresh weight thereof was zero.\n(§6) The investigation was performed after 21 days of the treatment for only once.\n(§7) An optimum ratio of the two active ingredients was determined by the actual control effect, characteristics of herbicides, and balance of a corresponding formula. Wherein, in the formula, X represented the fresh weight inhibition rate of the active ingredient A in a dosage of P, and Y represented the fresh weight inhibition rate of the active ingredient B in a dosage of Q. The statistical results were shown in the table 6."}, "Descurainia sophia": {"test_system": "Descurainia sophia", "assay": "Composition activity test, soil sealing treatment", "procedure": "as §1, §2, §3, §4, §5, §6, §7"}, "Eleusine indica": {"test_system": "Eleusine indica", "assay": "Composition activity test, post-emergence foliage spray"}, "Leptochloa chinensis": {"test_system": "Leptochloa chinensis", "assay": "Composition activity test, soil sealing treatment", "procedure": "as §1, §2, §3, §4, §5, §6, §7"}, "Eriochloa villosa": {"test_system": "Eriochloa villosa", "assay": "Composition activity test, post-emergence foliage spray"}, "Capsella bursa-pastoris": {"test_system": "Capsella bursa-pastoris", "assay": "Composition activity test, post-emergence foliage spray"}, "Cyperus difformis": {"test_system": "Cyperus difformis", "assay": "Composition activity test, post-emergence foliage spray"}, "Conyza Canadensis": {"test_system": "Conyza Canadensis", "assay": "Composition activity test, post-emergence foliage spray"}, "Cyperus serotinus": {"test_system": "Cyperus serotinus", "assay": "Composition activity test, post-emergence foliage spray"}, "Amaranthus retroflexus": {"test_system": "Amaranthus retroflexus", "assay": "Composition activity test, soil sealing treatment", "procedure": "as §1, §2, §3, §4, §5, §6, §7"}, "Echinochloa crusgalli": {"test_system": "Echinochloa crusgalli", "assay": "Composition activity test, soil sealing treatment", "details": "B 600 g a.i./ha", "procedure": "as §1, §2, §3, §4, §5, §6, §7"}}}
{"smiles": "Cc1ccccc1CO[C@@H]1C[C@@]2(C(C)C)CC[C@]1(C)O2", "note": "(racemic) [cinmethylin]", "values": [{"measurement": "Control effect (%) of B applied alone (B)", "setting": "Lolium multiflorum Lamk.", "result": 33.7, "unit": "%"}]}
{"smiles": "COP(=S)(OC)SCC(=O)N(c1ccc(Cl)cc1)C(C)(C)C", "note": "[anilofos]", "values": [{"measurement": "Control effect (%) of B applied alone (B)", "setting": "Descurainia sophia; B 75 g a.i./ha", "result": 38.3, "unit": "%"}]}
{"smiles": "CC1(C)CON(Cc2ccc(Cl)cc2Cl)C1=O", "note": "[bixlozone]", "values": [{"measurement": "Control effect (%) of B applied alone (B)", "setting": "Eleusine indica; B 180 g a.i./ha", "result": 36.7, "unit": "%"}]}
{"smiles": "CCCCOCN(C(=O)CCl)c1c(CC)cccc1CC", "note": "[butachlor]", "values": [{"measurement": "Control effect (%) of B applied alone (B)", "setting": "Descurainia sophia; B 225 g a.i./ha", "result": 42.2, "unit": "%"}]}
{"smiles": "CCC(C)Nc1c([N+](=O)[O-])cc(C(C)(C)C)cc1[N+](=O)[O-]", "note": "(centres unmarked) [butralin]", "values": [{"measurement": "Control effect (%) of B applied alone (B)", "setting": "Leptochloa chinensis; B 180 g a.i./ha", "result": 47.4, "unit": "%"}]}
{"smiles": "CCSC(C)CC1CC(=O)C(/C(CC)=N/OC/C=C/Cl)=C(O)C1", "note": "(centres unmarked) [clethodim]", "values": [{"measurement": "Control effect (%) of B applied alone (B)", "setting": "Eriochloa villosa; B 30 g a.i./ha", "result": 35.5, "unit": "%"}]}
{"smiles": "CC1(C)CON(Cc2ccccc2Cl)C1=O", "note": "[clomazone]", "values": [{"measurement": "Control effect (%) of B applied alone (B)", "setting": "Eleusine indica; B 150 g a.i./ha", "result": 46.5, "unit": "%"}]}
{"smiles": "O=C(Nc1ccc(F)cc1F)c1cccnc1Oc1cccc(C(F)(F)F)c1", "note": "[diflufenican]", "values": [{"measurement": "Control effect (%) of B applied alone (B)", "setting": "Capsella bursa-pastoris; B 75 g a.i./ha", "result": 33.1, "unit": "%"}]}
{"smiles": "c1cc[n+]2c(c1)-c1cccc[n+]1CC2", "note": "[diquat dibromide monohydrate]", "values": [{"measurement": "Control effect (%) of B applied alone (B)", "setting": "Cyperus difformis; B 300 g a.i./ha", "result": 18.4, "unit": "%"}, {"measurement": "Control effect (%) of B applied alone (B)", "setting": "Conyza Canadensis; B 300 g a.i./ha", "result": 37.8, "unit": "%"}]}
{"smiles": "CC(C)N(C(=O)COc1nnc(C(F)(F)F)s1)c1ccc(F)cc1", "note": "[flufenacet]", "values": [{"measurement": "Control effect (%) of B applied alone (B)", "setting": "Descurainia sophia; B 150 g a.i./ha", "result": 45.6, "unit": "%"}]}
{"smiles": "CNC1=C(c2cccc(C(F)(F)F)c2)C(=O)C(c2ccccc2)O1", "note": "(centres unmarked) [flurtamone]", "values": [{"measurement": "Control effect (%) of B applied alone (B)", "setting": "Capsella bursa-pastoris; B 75 g a.i./ha", "result": 56.7, "unit": "%"}]}
{"smiles": "CP(=O)(O)CCC(N)C(=O)O", "note": "(centres unmarked) [glufosinate ammonium]", "values": [{"measurement": "Control effect (%) of B applied alone (B)", "setting": "Cyperus serotinus; B 300 g a.i./ha", "result": 23.1, "unit": "%"}, {"measurement": "Control effect (%) of B applied alone (B)", "setting": "Conyza Canadensis; B 300 g a.i./ha", "result": 57.8, "unit": "%"}]}
{"smiles": "CP(=O)(O)CC[C@H](N)C(=O)O.N", "note": "[glufosinate-P-ammonium]", "values": [{"measurement": "Control effect (%) of B applied alone (B)", "setting": "Cyperus serotinus; B 150 g a.i./ha", "result": 21.4, "unit": "%"}]}
{"smiles": "O=C(O)CNCP(=O)(O)O", "note": "[glyphosate]", "values": [{"measurement": "Control effect (%) of B applied alone (B)", "setting": "Conyza Canadensis; B 450 g a.i./ha", "result": 51.2, "unit": "%"}]}
{"smiles": "Cc1ccc2c(c1)[C@H](Nc1nc(N)nc(C(C)F)n1)[C@@H](C)C2", "note": "(some centres unmarked) [indaziflam]", "values": [{"measurement": "Control effect (%) of B applied alone (B)", "setting": "Amaranthus retroflexus; B 15 g a.i./ha", "result": 49.3, "unit": "%"}]}
{"smiles": "CN(C(=O)COc1nc2ccccc2s1)c1ccccc1", "note": "[mefenacet]", "values": [{"measurement": "Control effect (%) of B applied alone (B)", "setting": "Descurainia sophia; B 150 g a.i./ha", "result": 46.4, "unit": "%"}]}
{"smiles": "C[n+]1ccc(-c2cc[n+](C)cc2)cc1", "note": "[paraquat dichloride]", "values": [{"measurement": "Control effect (%) of B applied alone (B)", "setting": "Cyperus difformis; B 150 g a.i./ha", "result": 35.7, "unit": "%"}, {"measurement": "Control effect (%) of B applied alone (B)", "setting": "Conyza Canadensis; B 225 g a.i./ha", "result": 48.4, "unit": "%"}]}
{"smiles": "CCC(CC)Nc1c([N+](=O)[O-])cc(C)c(C)c1[N+](=O)[O-]", "note": "[pendimethalin]", "values": [{"measurement": "Control effect (%) of B applied alone (B)", "setting": "Leptochloa chinensis; B 150 g a.i./ha", "result": 43.2, "unit": "%"}]}
{"smiles": "O=C(Nc1ccc(F)cc1)c1cccc(Oc2cccc(C(F)(F)F)c2)n1", "note": "[picolinafen]", "values": [{"measurement": "Control effect (%) of B applied alone (B)", "setting": "Capsella bursa-pastoris; B 45 g a.i./ha", "result": 44.4, "unit": "%"}]}
{"smiles": "CCCOCCN(C(=O)CCl)c1c(CC)cccc1CC", "note": "[pretilachlor]", "values": [{"measurement": "Control effect (%) of B applied alone (B)", "setting": "Descurainia sophia; B 180 g a.i./ha", "result": 51.2, "unit": "%"}]}
{"smiles": "CCCN(CCC)C(=O)SCc1ccccc1", "note": "[prosulfocarb]", "values": [{"measurement": "Control effect (%) of B applied alone (B)", "setting": "Echinochloa crusgalli", "result": 32.6, "unit": "%"}]}
{"smiles": "Cn1nc(C(F)(F)F)c(CS(=O)(=O)C2=NOC(C)(C)C2)c1OC(F)F", "note": "[pyroxasulfone]", "values": [{"measurement": "Control effect (%) of B applied alone (B)", "setting": "Descurainia sophia; B 60 g a.i./ha", "result": 57.6, "unit": "%"}]}
{"smiles": "COC(=O)[C@@H](C)Oc1ccc(Oc2cnc3cc(Cl)ccc3n2)cc1", "note": "[quizalofop-P-methyl]", "values": [{"measurement": "Control effect (%) of B applied alone (B)", "setting": "Eriochloa villosa; B 15 g a.i./ha", "result": 41.7, "unit": "%"}]}
{"smiles": "CCc1cccc(C)c1N(C(=O)CCl)[C@@H](C)COC", "note": "[s-metolachlor]", "values": [{"measurement": "Control effect (%) of B applied alone (B)", "setting": "Descurainia sophia; B 150 g a.i./ha", "result": 31.3, "unit": "%"}]}
{"smiles": "CCC/C(=N\\OCC)C1=C(O)CC(CC(C)SCC)CC1=O", "note": "(centres unmarked) [sethoxydim]", "values": [{"measurement": "Control effect (%) of B applied alone (B)", "setting": "Eriochloa villosa; B 45 g a.i./ha", "result": 36.7, "unit": "%"}]}
{"smiles": "Cc1cc(C)cc(OCC(C)Nc2nc(N)nc(C(C)(C)F)n2)c1", "note": "(centres unmarked) [triaziflam]", "values": [{"measurement": "Control effect (%) of B applied alone (B)", "setting": "Amaranthus retroflexus; B 30 g a.i./ha", "result": 42.1, "unit": "%"}]}
